Values of other authors as cited in patent US12508224B2, “Treating microvascular dysfunction” (EndoProtech, Inc., priority 2018, dated 2025).

Test system: glycocalyx

CCCCCCCCCCCCC/C=C/[C@@H](O)[C@@H](N)COP(=O)(O)O [SP, sphingosine-1-phosphate]
levels needed in plasma to protect the stability of the glycocalyx: 100 to 300 nM
